Test results reported in patent US20240190856A1, “MELANOCORTIN-4 RECEPTOR AGONIST” (LG CHEM, LTD., priority 2021, published 2024).
Structures can show the parent of a compound that is named as a salt.

Legend:
[1] = target: T1, MC4R (melanocortin-4 receptor) (Homo sapiens, UniProt P32245); assay: Luciferase assay (CRE-LUC, HEK MC4R-Luc cells); assay type: cell-based; conditions: 5 h incubation, concentration inducing 50% of each agonist's own maximum luminescence
T1 construct: expressed in transfected cells
Method: In order to measure the agonist ability against MC4R (melanocortin-4 receptor), a cell line that permanently expresses the luciferase gene (CRE-LUC) under the control of MC4R and CRE (cAMP response element) was established. After a mammalian cell expression vector (pCDNA3 (Neo)) (Invitrogen) containing the MC4R gene was prepared, human embryonic kidney (HEK) cell lines were transformed by using Lipofectamine 2000 (Invitrogen) together with a vector (pCRE-Luc)(Stratagen) expressing a luciferase gene (CRE-LUC) under the control of a cAMP response element (CRE). Transformed cell lines (HEK MC4R-Luc) were incubated in a 37° C. incubator in the presence of 5% CO2 for 24 hours by using Dulbecco's Modified Eagles Medium (DMEM) containing 10% Heat-Inactivated Fetal Bovine Serum (GIBCO/BRL). The cell lines were incubated for four days in the presence of Dulbecco's Modified Eagles Medium (DMEM) containing 10 ml of selection medium (10% Heat-Inactivated Fetal Bovine Serum (GIBCO/BRL), 100 unit/ml of penicillin (GIBCO/BRL), 100 unit/ml of streptomycin (GIBCO/BRL), 800 μg/ml of Geneticin (G418) (GIBCO/BRL). The process of removing cells killed by the selection medium by replacing the medium with 10 ml of a new selection medium was repeated three times, once every 4 days. Individual colonies formed by the finally selected and propagated clones were transferred under a microscope to a 24-well cell culture plate containing 1 ml of selection medium per well and incubated for 4 days. Forskolin (SIGMA) was treated to a final concentration of 10 μM, and then incubated for five hours in a 37° C. incubator in the presence of 5% CO2. Each well was treated with 50 μl of a Bright-Glo luciferase reagent (Promega) and left at room temperature for 15 minutes, and then the luminescence of each well was measured by using a luminometer (Victor).
HEK MC4R-Luc cells were added to each well of a 96-well luminometer cell culture plate (Costar) to a size of 2.5×10^4 cells in 100 μl of a culture medium and then incubated in a 37° C. incubator in the presence of 6% CO2 for 18 hours. […] Each well was treated with 50 μl of a Bright-Glo luciferase reagent (Promega) and left at room temperature for five minutes, and then the luminescence of each well was measured by using a luminometer (Victor). […] EC0.5 MSH is expressed as a concentration that induces 50% of the maximum amount of luminescence that can be induced by NDP-α-MSH, and EC50 is expressed as a concentration that induces 50% of the maximum amount of luminescence that can be induced by each agonist. The measurements were measured using statistical software (Prizm).

MC4R = MC4R (Homo sapiens, UniProt P32245); assay: Binding affinity (125I-NDP-α-MSH displacement, membranes of HEK-293 cells expressing MC4R); design: expressed in transfected cells; host or cells: HEK-293 cells, membrane preparation; conditions: 0.02 nM 125I-NDP-α-MSH, 37° C. for two hours, pH 7.0
From the text: Five subtypes of melanocortin receptor (MCR) in vivo are known, and it is known that MC4R, which is Subtype 4, is involved in energy metabolism and weight control. Since other MCR subtypes are involved in the regulation of various functions in vivo such as skin pigmentation, energy homeostasis, and exocrine functions, securing selectivity for MC4R of MC4R agonist compounds is very important in preventing possible side effects in the future. Therefore, the receptor binding abilities of MC4R agonists for each MCR subtype were measured.
After the CHO-K 1 cell line expressing human recombinant MC1R and the HEK-293 cell lines expressing MC3R, MC4R and MC5R were established, membranes were collected from each cell line. In a 96-well cell culture plate, 3 μg MC1R membrane and 0.04 nM ^125I-NDP-α-MSH per well were reacted at 37° C. for two hours. 3 μg MC3R and MC5R membrane and 0.035 nM ^125I-NDP-α-MSH were reacted at 37° C. for one hour, and […] MC4R membrane and 0.02 nM ^125I-NDP-α-MSH were reacted at 37° C. for two hours. At this time, 25 mM HEPES-KOH adsorption buffer (pH 7.0) containing MCR agonist diluted at each step concentration was added to each well and reacted. The reacted solution was transferred to a filter and washed with an adsorption buffer, and then radioactivity was measured. The value excluding the non-specific binding amount in the presence of 1 μM (MC1R) and 3 μM (MC3R, MC4R, MC5R) of NDP-α-MSH from each total binding amount was used as specific binding amounts of ^125I-NDP-α-MSH. The degree to which the ^125I-NDP-a-MSH specific binding was inhibited by the agonist diluted at each step concentration was measured. IC50 was expressed as the concentration of each agonist that inhibited specific binding of 50% of ^125I-NDP-α-MSH.
Tables 4-1 and 4-2 show the results of measuring the binding of melanocortin receptors of the compounds obtained by the above experiment in Ki (nM) units.

Sequence of MC4R (P32245 whole entry): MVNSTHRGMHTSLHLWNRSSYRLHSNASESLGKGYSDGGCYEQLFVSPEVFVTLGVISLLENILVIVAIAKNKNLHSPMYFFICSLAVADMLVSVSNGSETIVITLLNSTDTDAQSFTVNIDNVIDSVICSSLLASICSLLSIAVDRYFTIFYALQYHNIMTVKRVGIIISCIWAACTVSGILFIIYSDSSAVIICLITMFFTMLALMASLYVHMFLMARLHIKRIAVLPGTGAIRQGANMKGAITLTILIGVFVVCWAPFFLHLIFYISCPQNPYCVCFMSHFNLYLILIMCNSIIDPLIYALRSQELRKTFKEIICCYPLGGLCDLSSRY
T1 sequence (P32245 whole entry, species assumed): as the sequence (P32245 whole entry) above

EC50 [1] [nM] | Ki (MC4R; Table 4-1) [nM] | Ki (MC4R; Table 4-2) [nM] | Structure (SMILES)
14.7 | 1450 | 1780 | CC(=O)N(C1CCC(C)(C)CC1)[C@H]1C[C@@H](C(=O)N2CCOCC2)N(C(=O)[C@@H]2CN(C(C)(C)C)C[C@H]2c2ccc(F)cc2F)C1 [Comparative Example 1 (A95), N-((3S,5S)-1-((3S,4R)-1-(tert-butyl)-4-(2,4-difluorophenyl)pyrrolidine-3-carbonyl)-5-(morpholine-4-carbonyl)pyrrolidin-3-yl)-N-(4,4-dimethylcyclohexyl)acetamide hydrochloride, reference compound]
5.61 | 410 | 530 | CC(=O)N(C1CCC(C)(C)CC1)[C@H]1C[C@@H](C(=O)N2CCOCC2)N(C(=O)[C@@H]2CN(C(C)(C)C)C[C@H]2c2ccc(Cl)cc2)C1 [Comparative Example 2 (A96), N-((3S,5S)-1-((3S,4R)-1-(tert-butyl)-4-(4-chlorophenyl)pyrrolidine-3-carbonyl)-5-(morpholine-4-carbonyl)pyrrolidin-3-yl)-N-(4,4-dimethylcyclohexyl)acetamide hydrochloride, reference compound]
3.82 |  |  | CC(C)C(=O)N(C1CCC(C)(C)CC1)[C@H]1C[C@@H](C(=O)N2CCOCC2)N(C(=O)[C@@H]2CN(C(C)(C)C)C[C@H]2c2ccc(Cl)cc2)C1 [Example 5, N-((3S,5S)-1-((3S,4R)-1-(tert-butyl)-4-(4-chlorophenyl)pyrrolidine-3-carbonyl)-5-(morpholine-4-carbonyl)pyrrolidin-3-yl)-N-(4,4-dimethylcyclohexyl)isobutyramide hydrochloride]
